These results are taken from patent US5607960A, “Indole derivatives as 5-HT1-like agonists for use in migraine” (Pfizer Inc., priority 1993, dated 1997).

Data set [1] concerns the target T1, "5-HT1 -like" receptor (Canis lupus familiaris, UniProt P79250).
T1 construct: dog isolated saphenous vein strip; from tissue; host or cells: dog isolated saphenous vein strip
The data set can be described thus: contraction of dog isolated saphenous vein strip (in vitro "5-HT1 -like" receptor agonist activity). Format: cell-based. The settings on record: for EC50: concentration which causes 50% of the maximum contraction effected by the compound; for RELATIVE POTENCY EC50 (compound) / EC50 (5-HT): ratio to 5-HT. The text has this: EC50 represents the concentration of compound which causes 50% of the maximum contraction effected by it.

A short description of data set [2]: acute toxicity in conscious dog, i.v. The settings on record: doses of up to 1 mg/Kg i.v. Format: in vivo.
Data set [3] is described as follows: acute toxicity in conscious mouse, i.v. The format is in vivo. Conditions: doses of up to 10 mg/Kg i.v.
Data set [4] has as its target T1, "5-HT1 -like" receptor. Conditions: cited from earlier work.
Another data set has as its system carotid vascular bed. The settings on record: anaesthetized dog; cited from earlier work.

T1 sequence (P79250 whole entry): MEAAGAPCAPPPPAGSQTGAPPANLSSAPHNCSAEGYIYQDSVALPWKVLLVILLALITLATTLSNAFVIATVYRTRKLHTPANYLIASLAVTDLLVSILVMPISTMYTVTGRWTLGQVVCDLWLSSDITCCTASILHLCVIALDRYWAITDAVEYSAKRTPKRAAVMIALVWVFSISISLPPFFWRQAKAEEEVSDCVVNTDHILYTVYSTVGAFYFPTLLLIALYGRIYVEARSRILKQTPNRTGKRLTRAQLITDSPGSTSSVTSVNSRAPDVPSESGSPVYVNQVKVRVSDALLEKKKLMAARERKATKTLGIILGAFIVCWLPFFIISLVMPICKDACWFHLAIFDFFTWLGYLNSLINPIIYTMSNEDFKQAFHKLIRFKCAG

`CN1CCC[C@@H]1Cc1c[nH]c2ccc(C=CC(C)(C)O)cc12` [Example 1, 5-(3-Hydroxy-3-methyl-1-but-1-enyl)-3-(N-methyl-2(R)-pyrrolidinylmethyl)-1H-indole]: at "5-HT1 -like" receptor [1], it took 400 nM to reach a half-maximal effect (EC50) and the “RELATIVE POTENCY EC50 (compound) / EC50 (5-HT)” value came out at 7.7.

Take `CC(C)(O)CCc1ccc2[nH]cc(C[C@H]3CCCN3CC3CC3)c2c1` [Example 25, 3-(N-Cyclopropylmethyl-2(R)-pyrrolidinylmethyl)-5-(3-hydroxy-3-methyl-1-butyl)-1H-indole]: on "5-HT1 -like" receptor [1], the EC50 (as a rule, the concentration at which the effect is half-maximal) was determined as 480 nM and the “RELATIVE POTENCY EC50 (compound) / EC50 (5-HT)” value is on record as 6.4.

`CC(C)(O)CCc1ccc2[nH]cc(C[C@H]3CCCN3)c2c1` [Example 29, 5-(3-Hydroxy-3-methyl-1-butyl)-3-(2(R)-pyrrolidinylmethyl)-1H-indole] showed an EC50 on "5-HT1 -like" receptor [1] of 670 nM. Besides, the “RELATIVE POTENCY EC50 (compound) / EC50 (5-HT)” value at "5-HT1 -like" receptor [1] stood at 9.0. For the same compound, the “signs of adverse acute toxicity” value in data set [2] and in data set [3] was “no signs of adverse acute toxicity” each time.

With `CC(C)(O)CCc1ccc2[nH]cc(C[C@H]3CCCN3CCc3ccncc3)c2c1` [Example 30, 5-(3-Hydroxy-3-methyl-1-butyl)-3-{N-[2-(4-pyridyl)ethyl]-2(R)-pyrrolidinylmethyl}-1H-indole], on "5-HT1 -like" receptor [1], the EC50 was found to be 940 nM and the “RELATIVE POTENCY EC50 (compound) / EC50 (5-HT)” value amounted to 7.2.

`CC(=O)CCc1ccc2[nH]cc(C[C@H]3CCCN3)c2c1` [Example 37, 5-(3-Oxo-1-butyl)-3-(2(R)-pyrrolidinylmethyl)-1H-indole]: on "5-HT1 -like" receptor [1], the EC50 was found to be 130 nM and the “RELATIVE POTENCY EC50 (compound) / EC50 (5-HT)” value is recorded as 1.3.

Regarding `CC(O)CCc1ccc2[nH]cc(C3CCN(C)CC3)c2c1` (centres unmarked) [Example 43, 5-(3-Hydroxy-1-butyl)-3-(N-methyl-4-piperidyl)-1H-indole], on "5-HT1 -like" receptor [1], the concentration giving a half-maximal response (EC50) was found to be 560 nM and the “RELATIVE POTENCY EC50 (compound) / EC50 (5-HT)” value was found to be 8.0.

As to `CC(C)(O)CCc1ccc2[nH]cc(CCN)c2c1` [Example 48, 3-(2-Aminoethyl)-5-(3-hydroxy-3-methyl-1-butyl)-1H-indole], at "5-HT1 -like" receptor [1], a half-maximal response (EC50) required 300 nM and the “RELATIVE POTENCY EC50 (compound) / EC50 (5-HT)” value came out at 3.2.

Take `CC(O)(CCc1ccc2[nH]cc(C[C@H]3CCCN3)c2c1)C(F)(F)F` (stereo partly drawn) [Example 95, 5-(3-Hydroxy-3-trifluoromethyl-1-butyl)-3-(2(R)-pyrrolidinylmethyl)-1H-indole]: at "5-HT1 -like" receptor [1], a half-maximal effect (EC50) was put at 320 nM and the “RELATIVE POTENCY EC50 (compound) / EC50 (5-HT)” value is given as 4.0.

Regarding `CN(C)C(=O)CCN1CCC[C@@H]1Cc1c[nH]c2ccc(CCC3(O)CCOC3)cc12` (stereo partly drawn) [Example 101, 5-[2-(3-Hydroxy-3-tetrahydrofuranyl)ethyl]-3-{N-[2-(N,N-dimethylcarbamoyl)ethyl]-2(R)-pyrrolidinylmethyl}-1H-indole], at "5-HT1 -like" receptor [1], a half-maximal response (EC50) required 700 nM and the “RELATIVE POTENCY EC50 (compound) / EC50 (5-HT)” value is on record as 10.0.

`OC1(CCc2ccc3[nH]cc(C4CCNC4)c3c2)CCCC1` (centres unmarked) [Example 109, 5-[2-(1-Hydroxycyclopentyl)ethyl]-3-(3-pyrrolidinyl)-1H-indole]: at "5-HT1 -like" receptor [1], the EC50 came to 750 nM and the “RELATIVE POTENCY EC50 (compound) / EC50 (5-HT)” value stood at 8.5.

`CNS(=O)(=O)Cc1ccc2[nH]cc(CCN(C)C)c2c1` [Sumatriptan, sumatriptan]: the “contraction of the isolated dog saphenous vein strip” value on "5-HT1 -like" receptor [4] (P.P.A. Humphrey et al., Brit. J. Pharmacol., 1988, 94, 1123) is “contracting the isolated dog saphenous vein strip”. Moreover, in the data set with carotid vascular bed, the “carotid arterial blood flow” value is on record as “decrease in carotid arterial blood flow” and the carotid vascular resistance entry is reported as “selective increase in carotid vascular resistance”.

Turning to `CSc1ccc2c(c1)C(N1CCN(C)CC1)Cc1ccccc1S2` (centres unmarked) [methiothepin], at "5-HT1 -like" receptor [4] (isolated dog saphenous vein strip, known 5-HT antagonist), the “blockade of the contraction effect” value was “blocked”.
